Key:
Type in all cases: biochemical
[1] = target: T1, SERT (Rattus norvegicus, UniProt P31652); assay: [3H]5-HT uptake inhibition at SERT in rat brain synaptosomes
[2] = target: T1, SERT; assay: [3H]5-HT release at SERT in rat brain synaptosomes; settings: for Emax: read-out: Release at SERT % Emax
[3] = target: T2, DAT (Rattus norvegicus, UniProt P23977); assay: [3H]MPP+ release at DAT in rat brain synaptosomes; settings: for DAT/SERT ratio (release): (DAT EC50^-1)/(SERT EC50^-1), higher value indicates greater DAT selectivity; for Emax: read-out: Release at DAT % Emax
[4] = target: T2, DAT; assay: [3H]dopamine uptake inhibition at DAT in rat brain synaptosomes; settings: for DAT/SERT ratio (uptake inhibition): (DAT IC50^-1)/(SERT IC50^-1), higher value indicates greater DAT selectivity; for IC50: [3H]Dopamine uptake at DAT IC50, rat caudate synaptosomes, 5 nM [3H]dopamine, mean ± SD, N=3
[5] = target: T3, NET (Rattus norvegicus, UniProt Q63380); assay: [3H]MPP+ release at NET in rat brain synaptosomes; settings: for Emax: read-out: Release at NET % Emax
[6] = target: T3, NET; assay: [3H]norepinephrine uptake inhibition at NET in rat brain synaptosomes; settings: [3H]Norepinephrine uptake at NET IC50, rat brain synaptosomes, 10 nM [3H]norepinephrine; mean ± SD, N=3

T2 sequence (P23977 whole entry): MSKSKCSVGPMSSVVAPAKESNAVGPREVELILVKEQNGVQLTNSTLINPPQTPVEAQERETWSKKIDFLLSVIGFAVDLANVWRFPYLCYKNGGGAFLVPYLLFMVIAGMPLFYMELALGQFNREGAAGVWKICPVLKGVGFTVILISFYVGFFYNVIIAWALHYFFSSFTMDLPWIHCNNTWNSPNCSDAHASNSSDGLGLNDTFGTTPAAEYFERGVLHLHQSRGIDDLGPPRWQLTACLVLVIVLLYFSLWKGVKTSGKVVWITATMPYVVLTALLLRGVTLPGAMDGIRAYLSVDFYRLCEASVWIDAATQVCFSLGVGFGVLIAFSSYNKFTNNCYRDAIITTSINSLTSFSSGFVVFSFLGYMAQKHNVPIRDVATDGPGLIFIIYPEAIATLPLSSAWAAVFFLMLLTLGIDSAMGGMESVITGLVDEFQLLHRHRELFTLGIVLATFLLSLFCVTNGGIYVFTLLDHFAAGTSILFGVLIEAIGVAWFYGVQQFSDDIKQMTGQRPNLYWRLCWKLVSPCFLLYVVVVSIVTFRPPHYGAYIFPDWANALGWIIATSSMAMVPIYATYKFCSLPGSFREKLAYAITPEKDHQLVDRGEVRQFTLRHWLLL
T1 sequence (P31652 whole entry): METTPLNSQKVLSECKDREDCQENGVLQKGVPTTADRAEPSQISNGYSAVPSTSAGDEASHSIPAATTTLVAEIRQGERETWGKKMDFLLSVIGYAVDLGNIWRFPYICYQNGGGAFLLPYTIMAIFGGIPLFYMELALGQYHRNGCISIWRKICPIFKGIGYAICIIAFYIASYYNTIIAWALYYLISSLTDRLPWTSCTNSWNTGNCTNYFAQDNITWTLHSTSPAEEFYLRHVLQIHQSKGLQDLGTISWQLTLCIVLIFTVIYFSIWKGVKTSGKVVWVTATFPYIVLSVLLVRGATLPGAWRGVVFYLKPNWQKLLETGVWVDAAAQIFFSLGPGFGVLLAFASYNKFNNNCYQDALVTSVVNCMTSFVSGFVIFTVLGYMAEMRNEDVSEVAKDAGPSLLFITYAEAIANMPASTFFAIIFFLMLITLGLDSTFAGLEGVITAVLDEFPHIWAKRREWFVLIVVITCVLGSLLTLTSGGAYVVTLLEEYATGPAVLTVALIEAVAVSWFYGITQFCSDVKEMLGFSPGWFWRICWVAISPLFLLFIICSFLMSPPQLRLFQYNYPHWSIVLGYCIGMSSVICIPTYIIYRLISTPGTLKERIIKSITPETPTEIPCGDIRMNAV
T3 sequence (Q63380 1-617): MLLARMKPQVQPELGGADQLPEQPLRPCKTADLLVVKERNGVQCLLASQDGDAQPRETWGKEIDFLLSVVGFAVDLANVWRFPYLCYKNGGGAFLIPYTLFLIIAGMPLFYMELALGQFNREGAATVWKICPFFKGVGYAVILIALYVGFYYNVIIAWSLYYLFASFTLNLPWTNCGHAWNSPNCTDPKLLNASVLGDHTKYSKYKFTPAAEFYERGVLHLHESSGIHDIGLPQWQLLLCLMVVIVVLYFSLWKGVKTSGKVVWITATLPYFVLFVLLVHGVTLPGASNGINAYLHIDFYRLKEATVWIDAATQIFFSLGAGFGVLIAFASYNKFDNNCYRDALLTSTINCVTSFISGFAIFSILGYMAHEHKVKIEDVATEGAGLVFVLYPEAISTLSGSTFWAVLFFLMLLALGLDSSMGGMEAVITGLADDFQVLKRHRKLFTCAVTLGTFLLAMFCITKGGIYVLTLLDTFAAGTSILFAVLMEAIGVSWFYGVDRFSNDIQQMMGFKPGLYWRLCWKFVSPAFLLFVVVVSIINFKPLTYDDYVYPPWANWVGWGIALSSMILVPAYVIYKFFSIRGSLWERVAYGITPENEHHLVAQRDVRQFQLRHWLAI

Structure (SMILES) | IC50 [1] | EC50 [2] | Emax [2] | EC50 [3] | DAT/SERT ratio (release) [3] | Emax [3] | DAT/SERT ratio (uptake inhibition) [4] | IC50 [4] | EC50 [5] | Emax [5] | IC50 [6] | fold more potent than 2-MPM and phenmetrazine at SERT (uptake inhibition) ([1]; relative to 2-MPM and phenmetrazine) | fold more potent than 2-MPM at DAT (uptake inhibition) ([4]; relative to 2-MPM) | releaser activity at SERT (in words) ([2]; rat brain synaptosomes)
Cc1ccccc1C1OCCNC1C (stereo not shown) [2-MPM, 3-Methyl-2-(2-methylphenyl)morpholine] | 4010 ± 317 nM | 1760 ± 336 nM | 101% | 374 ± 38 nM | 4.7 | 104% | 0.6 | 6590 ± 1310 nM | 102 ± 12 nM | 91% | 2600 ± 633 nM |  |  | 
Cc1cccc(C2OCCNC2C)c1 (stereo not shown) [3-MPM, 3-Methyl-2-(3-methylphenyl)morpholine] | > 10000 nM | 5380 ± 947 nM | 111% | 1320 ± 218 nM | 4.1 | 110% |  | > 10000 nM | 509 ± 73 nM | 90% | 5210 ± 1650 nM |  |  | 
Cc1ccc(C2OCCNC2C)cc1 (stereo not shown) [4-MPM, 3-Methyl-2-(4-methylphenyl)morpholine] | 408 ± 17 nM | 86 ± 12 nM | 88% | 227 ± 30 nM | 0.4 | 99% | 0.2 | 1930 ± 207 nM | 62 ± 9 nM | 90% | 1930 ± 392 nM | ~10 fold | about 3.5 fold | 
CC1NCCOC1c1ccccc1 (stereo not shown) [Phenmetrazine, 3-methyl-2-phenylmorpholine, reference compound] | 3570 ± 836 nM | > 10000 nM |  | 70 ± 9 nM |  | 101% |  | 933 ± 57 nM | 29 ± 4 nM | 95% | 1160 ± 197 nM |  |  | negligible activity
